Results published in patent publication US20150252051A1, “RETINOIC ACID RECEPTOR-RELATED ORPHAN RECEPTOR MODULATORS AND USES THEREOF” (INNOV17 LLC, priority 2014, published 2015).

How the values were obtained:
Type in all cases: cell-based
Conditions in all cases: 72 h; human CD4+ T cells under TH17-polarizing conditions, 3 days; supernatant ELISA
IL-17A = assay: Human TH17 cytokine inhibition as measured by ELISA (IL-17A)
Protocol: (§1) Human TH17 Cytokine Inhibition as Measured by ELISA Peripheral blood mononuclear cells (PBMCs) were sourced from freshly prepared leukocyte enriched plasma (buffy coat) from healthy donors (New York Blood Center). PBMCs were isolated by density gradient centrifugation using Ficoll-Paque™ PLUS (GE Healthcare). Human CD4+ T cells were seeded into 96-well plates (5×10^4 cells/well) and activated with plate-bound anti-human (h)-CD3 antibody and soluble h-aCD28 (both at 1 ug/ml; eBioscience) and differentiated into TH17 cells with 20 ng/mL h-IL-6, 5 ng/mL h-TGF-β1, 10 ng/mL h-IL-23 (eBioscience) and 10 ng/mL IL-1β (Miltenyi Biotec) in serum-free TexMACS Medium (Miltenyi Biotec) supplemented with 1% Penicillin/Streptomycin (Lonza) for 3 days. CD4+ T cells propagated under TH17-polarizing conditions were cultured in the presence or absence of various concentrations of compounds with a final concentration of 0.1% DMSO. Supernatants were collected and stored at −20° C. until assayed for IL-17A, IL-17F and IL-21 levels by “Ready-Set-Go” ELISA kits (eBioscience) as per manufacturer's instructions. Endpoint absorbance was read at 450 nm using a microplate reader (Perkin Elmer).

IL-17F = assay: Human TH17 cytokine inhibition as measured by ELISA (IL-17F)
Protocol: as §1

IL-21 = assay: Human TH17 cytokine inhibition as measured by ELISA (IL-21)
Protocol: as §1

Measured: IC50

O=C(c1ccccc1)N1C2CCC1C(CN1CCc3cc(-c4cn[nH]c4)ccc31)C2 (stereo not drawn) [Example 9, (2-((5-(1H-pyrazol-4-yl)-1H-indolin-1-yl)methyl)-7-azabicyclo[2.2.1]heptan-7-yl)(phenyl)methanone]
< 10 µM: all assays above

O=C(Cc1ccccc1)N1C2CCC1C(Cn1ccc3cc(-c4cn[nH]c4)ccc31)C2 (stereo not drawn) [Example 10, 1-(2-((5-(1H-pyrazol-4-yl)-1H-indol-1-yl)methyl)-7-azabicyclo[2.2.1]heptan-7-yl)-2-phenylethanone]
< 10 µM: all assays above

O=C(CCc1ccccc1)N1C2CCC1C(Cn1ccc3cc(-c4cn[nH]c4)ccc31)C2 (stereo not drawn) [Example 11, 1-(2-((5-(1H-pyrazol-4-yl)-1H-indol-1-yl)methyl)-7-azabicyclo[2.2.1]heptan-7-yl)-3-phenylpropan-1-one]
< 10 µM: all assays above

O=C(C1CCCCC1)N1C2CCC1C(Cn1ccc3cc(-c4cn[nH]c4)ccc31)C2 (stereo not drawn) [Example 12, (2-((5-(1H-pyrazol-4-yl)-1H-indol-1-yl)methyl)-7-azabicyclo[2.2.1]heptan-7-yl)(cyclohexyl)methanone]
< 10 µM: all assays above

O=C(CC1CCCCC1)N1C2CCC1C(Cn1ccc3cc(-c4cn[nH]c4)ccc31)C2 (stereo not drawn) [Example 13]
< 10 µM: all assays above

CC(C)CC(=O)N1C2CCC1C(Cn1ccc3cc(-c4cn[nH]c4)ccc31)C2 (stereo not drawn) [Example 14, 1-(2-((5-(1H-pyrazol-4-yl)-1H-indol-1-yl)methyl)-7-azabicyclo[2.2.1]heptan-7-yl)-3-methylbutan-1-one]
< 10 µM: all assays above

CC(C)C(=O)N1C2CCC1C(Cn1ccc3cc(-c4cn[nH]c4)ccc31)C2 (stereo not drawn) [Example 15, 1-(2-((5-(1H-pyrazol-4-yl)-1H-indol-1-yl)methyl)-7-azabicyclo[2.2.1]heptan-7-yl)-2-methylpropan-1-one]
< 10 µM: all assays above
